B2: Thermotoga maritima Mre11 (residues L7M-385) (enzyme, UniProt Q9X1X0 7-385, looked up)
chain: MKILHTSDWHLGVTSWTSSRPVDRREELKKALDKVVEEAEKREVDLILLTGDLLHSRNNPSVVALHDLLDYLKRMMRTAPVVVLPGNHDWKGLKLFGNFVTSISSDITFVMSFEPVDVEAKRGQKVRILPFPYPDESEALRKNEGDFRFFLESRLNKLYEEALKKEDFAIFMGHFTVEGLAGYAGIEQGREIIINRALIPSVVDYAALGHIHSFREIQKQPLTIYPGSLIRIDFGEEADEKGAVFVELKRGEPPRYERIDASPLPLKTLYYKKIDTSALKSIRDFCRNFPGYVRVVYEEDSGILPDLMGEIDNLVKIERKSRREIEEVLRESPEEFKEELDKLDYFELFKEYLKKREENHEKLLKILDELLDEVKKSEA

How the values were obtained:
[1] = target: T1, TmMre11:Rad50^NBD (TmMR^NBD catalytic head) (Thermotoga maritima, UniProt Q9X1X1, DEL191-685); assay: SPR and EMSA, nucleotide-stimulated DNA binding; assay type: biochemical; conditions: dsDNA 50mer, hairpin DNA
[2] = target: TmMre11:Rad50^NBD (TmMR^NBD catalytic head) (Thermotoga maritima, UniProt Q9X1X1, N64C/DEL191-685/I760C); assay: ATP-dependent BMOE crosslinking of Rad50 NBDs, SDS PAGE; assay type: binding
[3] = target: TmMre11:Rad50^NBD (TmMR^NBD catalytic head) (Thermotoga maritima, UniProt Q9X1X1, DEL191-685/D804C/H830C, form not given); assay: ATP-induced disulfide bond formation between Rad50 NBDs; assay type: binding; conditions: Cu2+
[4] = target: TmMre11:Rad50^NBD (TmMR^NBD catalytic head) (Thermotoga maritima, UniProt Q9X1X1, DEL191-685/D804C/H830C); assay: as above; assay type: binding; conditions: Cu2+
[5] = target: T1, TmMre11:Rad50^NBD (TmMR^NBD catalytic head); assay: ATPase activity; assay type: biochemical
[6] = target: TmMre11:Rad50^NBD (TmMR^NBD catalytic head) (Thermotoga maritima, UniProt Q9X1X1, DEL191-685, form not given); assay: reduced BMOE crosslinking of Mre11 dimer, SDS PAGE; assay type: binding; conditions: nucleotide binds Rad50; read-out at Mre11 dimer interface
[7] = target: T1, TmMre11:Rad50^NBD (TmMR^NBD catalytic head); assay: SAXS, compaction of catalytic head; assay type: binding; conditions: 50 mM Tris pH 7.7, 100 mM NaCl, 5 mM MnCl2, 10 mM MgCl2
co-purification = target: the molecule itself; assay: co-purification
crystal structure = target: the molecule itself; assay: crystal structure
[8] = target: B2; assay: crystal structure

TmMre11:Rad50^NBD (TmMR^NBD catalytic head) (Thermotoga maritima, UniProt Q9X1X1, DEL191-685/D804C/H830C, form not given), sequence (Q9X1X0 7-385 L7M/F291S, form open, one chain of several, further chain): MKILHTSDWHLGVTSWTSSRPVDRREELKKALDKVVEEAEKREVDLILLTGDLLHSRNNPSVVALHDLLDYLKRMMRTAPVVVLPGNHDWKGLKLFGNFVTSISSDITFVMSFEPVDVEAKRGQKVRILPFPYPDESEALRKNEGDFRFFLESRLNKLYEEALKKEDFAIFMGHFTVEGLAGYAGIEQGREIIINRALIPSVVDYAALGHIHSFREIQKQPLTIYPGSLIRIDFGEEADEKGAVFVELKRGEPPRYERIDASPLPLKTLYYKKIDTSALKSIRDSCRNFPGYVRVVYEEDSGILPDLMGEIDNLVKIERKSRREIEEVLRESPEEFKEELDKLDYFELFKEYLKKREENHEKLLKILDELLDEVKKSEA
TmMre11:Rad50^NBD (TmMR^NBD catalytic head) (Thermotoga maritima, UniProt Q9X1X1, DEL191-685/D804C/H830C, form not given), sequence (Q9X1X1 686-852 D804C/H830C, form open, one chain of several): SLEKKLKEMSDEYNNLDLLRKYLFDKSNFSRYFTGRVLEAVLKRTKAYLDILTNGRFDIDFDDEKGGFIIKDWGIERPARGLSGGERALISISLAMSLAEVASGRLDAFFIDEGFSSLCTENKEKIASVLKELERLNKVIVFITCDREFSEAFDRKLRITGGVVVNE
TmMre11:Rad50^NBD (TmMR^NBD catalytic head) (Thermotoga maritima, UniProt Q9X1X1, DEL191-685/D804C/H830C), sequence (Q9X1X1 686-852 D804C/H830C, one chain of several): as the sequence (Q9X1X1 686-852 D804C/H830C, form open, one chain of several) above
TmMre11:Rad50^NBD (TmMR^NBD catalytic head) (Thermotoga maritima, UniProt Q9X1X1, N64C/DEL191-685/I760C), sequence (Q9X1X1 1-190 N64C, one chain of several): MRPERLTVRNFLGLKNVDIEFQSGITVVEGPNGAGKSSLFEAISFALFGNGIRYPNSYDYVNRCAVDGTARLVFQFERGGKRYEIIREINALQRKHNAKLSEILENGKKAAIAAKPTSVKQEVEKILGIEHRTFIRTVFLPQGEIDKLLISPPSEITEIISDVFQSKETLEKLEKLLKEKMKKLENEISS
TmMre11:Rad50^NBD (TmMR^NBD catalytic head) (Thermotoga maritima, UniProt Q9X1X1, N64C/DEL191-685/I760C), sequence (Q9X1X1 686-852 I760C, one chain of several): as the sequence (Q9X1X1 686-852 D804C/H830C, form open, one chain of several) above, with I75C, C119D, C145H counted along it

## Nc1ncnc2c1ncn2[C@@H]1O[C@H](COP(=O)(O)OP(=O)(O)NP(=O)(O)O)[C@@H](O)[C@H]1O [AMPPNP]
[1]
  SPR and EMSA, nucleotide-stimulated DNA binding: SPR showed a strong effect of AMPPNP on dsDNA and hairpin DNA binding by TmMre11:Rad50^NBD

## Nc1ncnc2c1ncn2[C@@H]1O[C@H](COP(=O)(O)OP(=O)(O)OP(=O)(O)O)[C@@H](O)[C@H]1O [ATP]
[2]
  ATP-dependent BMOE crosslinking of Rad50 NBDs, SDS PAGE: crosslink the two NBDs in the presence of ATP, but not in the absence of ATP
[3]
  ATP-induced disulfide bond formation between Rad50 NBDs: we can now efficiently crosslink the NBDs by disulfide bond formation
[4]
  ATP-induced disulfide bond formation between Rad50 NBDs: ATP induced formation of a disulfide bond between D804C and H830C
[5]
  ATPase activity: Both proteins form a stoichiometric complex with ATPase as well as DNA binding activity
[6]
  reduced BMOE crosslinking of Mre11 dimer, SDS PAGE: ATP, AMPPNP and ATPγS reduced the ability of BMOE to crosslink Mre11 S110C dimers

## Nc1ncnc2c1ncn2[C@@H]1O[C@H](COP(=O)(O)OP(=O)(O)OP(O)(O)=S)[C@@H](O)[C@H]1O [ATPγS]
[7]
  SAXS, compaction of catalytic head (radius of gyration): Adding ATPγS indeed resulted in a substantial decrease of the radius of gyration (Rg)

B1: Thermotoga maritima Mre11 S110C (enzyme, UniProt Q9X1X0 7-385, looked up)
chain: MKILHTSDWHLGVTSWTSSRPVDRREELKKALDKVVEEAEKREVDLILLTGDLLHSRNNPSVVALHDLLDYLKRMMRTAPVVVLPGNHDWKGLKLFGNFVTSICSDITFVMSFEPVDVEAKRGQKVRILPFPYPDESEALRKNEGDFRFFLESRLNKLYEEALKKEDFAIFMGHFTVEGLAGYAGIEQGREIIINRALIPSVVDYAALGHIHSFREIQKQPLTIYPGSLIRIDFGEEADEKGAVFVELKRGEPPRYERIDASPLPLKTLYYKKIDTSALKSIRDFCRNFPGYVRVVYEEDSGILPDLMGEIDNLVKIERKSRREIEEVLRESPEEFKEELDKLDYFELFKEYLKKREENHEKLLKILDELLDEVKKSEA
co-purification
  binding result: binds

## B2
Crystal structure
  stoichiometry N: 2

B3: Thermotoga maritima Rad50^NBD (residues 1-190 and 686-852 joined by the linker GGAGGAGG) (domain or fragment)
chain: MRPERLTVRNFLGLKNVDIEFQSGITVVEGPNGAGKSSLFEAISFALFGNGIRYPNSYDYVNRNAVDGTARLVFQFERGGKRYEIIREINALQRKHNAKLSEILENGKKAAIAAKPTSVKQEVEKILGIEHRTFIRTVFLPQGEIDKLLISPPSEITEIISDVFQSKETLEKLEKLLKEKMKKLENEISSGGAGGAGGSLEKKLKEMSDEYNNLDLLRKYLFDKSNFSRYFTGRVLEAVLKRTKAYLDILTNGRFDIDFDDEKGGFIIKDWGIERPARGLSGGERALISISLAMSLAEVASGRLDAFFIDEGFSSLDTENKEKIASVLKELERLNKVIVFITHDREFSEAFDRKLRITGGVVVNE
[8]
  binding result: binds
